# Assay results as given in US20120149100A1, “CARDIOMYOCYTE CELL POPULATIONS” (Mount Sinai School of Medicine, priority 2005, published 2012).
# How the values were obtained:
# [1] = tested on: Ainv-Notch4 ES cells; assay: Flow cytometric analysis for HA-Notch4 expression after induction; assay type: cell-based; conditions: one day following Dox 0.5 μg/ml induction
# Method: Dissociated cells were incubated with biotinylated mAbs (against Flk-1, VE-cad, or CD41) in PBS containing 10% FCS on ice for 30 min. The cells were then washed once and incubated with streptavidin-PE-Cy5 (BD Pharmingen) for another 30 minutes on ice. Following an additional two washes, the cells were analyzed on a FACSCalibur flow cytometer (BectonDicldnson) or sorted on a Moflo cell sorter (Cytomation). For Troponin T or HA staining, cells were fixed in 4% paraformaldehyde (PFA) for 30 minutes and then incubated in a permeabilizing buffer consisting of PBS with 10% FCS and 0.1% saponin (Sigma) for 10 minutes. Following fixing and permeabilization, the cells were washed twice and incubated with an anti-Troponin T (unconjugated mouse antibody, Lab Vision) or anti-HA (conjugated with biotin, Covance) antibody for 30 minutes. After two washes, the cells were incubated with a secondary APC-conjugated goat anti-mouse antibody (for Troponin T antibody) or streptavidin-PE-Cy5 (for biotinylated HA antibody) for 30 minutes. Finally, the cells were washed twice with permeabilizing buffer and then twice with buffer without saponin. […] One day following Dox (0.5 μg/ml) induction, 90% of Ainv-Notch4 ES cells expressed Notch4 as determined by flow cytometric analysis for HA expression (FIG. 2A).
# [2] = tested on: Flk-1+ cells isolated from day 3.25 Ainv-Notch4 EBs; assay: Cardiac assay of reaggregated Flk-1+ cells from Ainv-Notch4 EBs; assay type: cell-based
# Method: (§1) Sorted cells were reaggregated for 24 hours in StemPro-34 serum-free medium (hwitrogen) containing 2 mM L-glutamine (GIBCO/BRL), transferrin (200 μg/ml), 0.5 mM ascorbic acid and 4.5×10^−4 M MTG at 3×10^5 cells per ml in ultra-low-attachment 24-well plates (Costar). Single aggregates or pools of aggregates were replated in gelatin-coated 96- or 24-well plates containing SternPro with 2 mM L-glutamine for cardiac culture. Following 2 to 4 days of culture the proportion of aggregates containing contracting cells was scored and the number of Troponin T-positive cells was evaluated by flow cytometric analyses. For the aggregated and cardiac cultures, doxycycline (Dox) was used at 0.5 μg/ml and γ-secretase inhibitor X at 5 μM (dissolved in DMSO). The same concentration of DMSO was added to the control cultures. Medium was changed everyday to provide fresh Dox and inhibitor.
# To investigate the potential of Notch4 to initiate a cardiogenic program in this early stage of hemangioblast population, Flk-1^+ cells isolated from day 3.25 Ainv-Notch4 EBs were reaggregated for 24 hours in the presence or absence of Dox as described above. The resulting aggregates were then cultured in gelatin-coated microliter wells containing serum-free media (hereafter referred to as cardiac cultures). These conditions efficiently support cardiomyooyte development from cardiogenic mesoderm (Kouskoff et al. (2005) Proc. Natl. Acad. Sci. 102:13170-13175). Both single aggregates and pools of aggregates were cultured for 2-3 days. Following this maturation step, the cultures of single aggregates were scored for the presence of contracting cells indicative of cardiomyocyte differentiation. None of the aggregates generated in the absence of Dox (−Dox/−Dox) contained contracting cells (FIG. 3A). Rather, these aggregates underwent heniatopoietio differentiation as indicated by the development of hemoglobinized erythroid cells, an observation consistent with the hemangioblast potential of this population. […] (FIG. 3B, right panel). Few cTnT cells were atected among the adhesive cells generated from non-induced aggregates (FIG. 3B, left panel). Cultures of the pooled induced aggregates generated extensive areas of contracting cells. Contracting cells were not detected in the cultures of the non-induced aggregates. Flow cytometric analysis of the differentiated progeny from pooled inducedaggregates confirmed the dramatic cardiogenic effect of Notch4 as greater than 60% of the entire cell population expressed cTnT after 2 days in the cardiac cultures (+Dox/−Dox, FIG. 3C). Less than 1% of the cells generated from the non-induced population expressed cTnT (−Dox/−Dox, FIG. 3C). […]
# [3] = tested on: BL-CFC in day 3.25 Flk-1+ cells; assay: Blast colony (BL-CFC) assay; assay type: cell-based
# Method: The blast and hematopoietic colony assays were performed as described Kennedy et al., (2003) Metods Enzymol. 365:39-59. Dox was added at 0.5 μg/ml to induce Notch4 expression and y-secretase inhibitor X (L685,458, Calbiochem) at 5 μM to blook Notch signaling in the:blast colony culture. To generate mixed hemangioblastkardiac colonies, blast colony growth was initiated in standard blast colony cultures containing Dox for 24 hours. The developing colonies were then washed from with methycellulose with IMDM containing 10% FCS to remove Dox. The colonies were recultured in blast colony metycellulose supplemented with Erythropoietin (2 U/ml) and IL-3 (1% conditioned medium). Mixed colonies containing an inner cardiac core surrounded by outer hematopoietic cells were picked for analysis at day 7.
# To determine if the BL-CFC is the target of the Notch4-induced fate change, day 3.25 Flk-1^+ cells were cultured in the BL-CFC assay in the presence or absence of Dox. In the absence of Dox, this population generated typical blast colonies that appeared as grape-like clusters of cells. When cultured in the presence of Dox, these cells formed compact colonies of tightly packed cells that were easy to distinguish from the blast colonies (FIG. 5A). The number of these compact colonies was similar to the number of blast cell colonies that developed in the non-induced cultures (FIG. 5B). […] None of these colonies expressed gata-1. As shown previously, blast colonies expressed the endothelial genes as well as gata-1. […] With extended time in the methylcellulose cultures, some of the compact colonies generated contracting cells. To quantify the proportion of colonies that generated contracting cells, individual colonies were picked at day 7 of culture and replated in microtiter wells in the cardiac cultures. Approximately 70% of the compact colonies generated contracting cells between 2 and 7 days of culture. The contracting cells expressed cTnT, confirming that they were cardiomyocytes (FIG. 5D).
# [4] = tested on: GFP-Bry+/Flk-1- fraction from GFP-Bry/Ainv-Notch4 ES cells; assay: Cardiac assay of reaggregated GFP-Bry+/Flk-1- cells; assay type: cell-based
# Method: as §1
# Cardiac potential has been mapped to the Flk-1^− fraction of brachytury-expressing mesoderm (GFP-Bry^+/Flk-1^−) at early singes of EB development (Kouskoff et al., supra). To investigate the role of Notch4 during cardiac differentiation of this mesoderm, the GFP cDNA was targeted to the brachyury locus of Ainv cells to enable the overexpression of Notch4 in the GFP-Bry^+/Flk-1^− population. The GFP-Bry^+/Flk-1^− fraction was isolated from clay 3.25 EBs derived from the GFP-Bry/Ainv-Notch4 ES cells, reaggregated for 1 day and the resultant aggregates plated in cardiac cultures. γ-Secretase inhibitor or Dox was added to the cells either during the reaggregation step or to the cardiac cultures to further define the stage specific effects of Notch4. Three days following differentiation of the aggregates in the cardiac cultures, the proportion of cTnT-positive cells and the expression of cardiac genes were analyzed (FIG. 7). […] As expected, this population expressed the spectrum of cardiac genes. Induction of Notch4 during the reaggregation stage (+Dox/−Dox) enhanced cardiomyocyte development over that observed in the control cultures (FIG. 7C). […]
# [5] = tested on: posterior primitive streak explants; assay: E7.5 primitive streak explant cultures; assay type: cell-based, mouse; conditions: inhibitor 10 μM; 5 days of culture
# Method: Female swiss webster mice (Taconic) were mated with male GFP-Bry^+/− mice described by Huber et al., (2004) Nature 432:625-630. Pregnant mice were sacrificed 7.5 days after mating and the embryos were isolated. Dissections were performed under a Leica MZFLIII fluorescence dissecting stereomicrosope to visualize the GFP expression in the primitive streak (PS). Using tungsten needles (Fine Science tools), the PS of GFP-Bry^+/− embryos were isolated and separated into posterior and anterior regions. Individual anterior and posterior PS pieces were plated in gelatin-coated 96-well dishes with medium for cardiac cultures. γ-Secretase inhibitor at 10 μM or a corresponding volume of DMSO was included in the cultures. Medium was changed everyday to provide fresh inhibitor. After 3-5 days, the explants were scored for the presence of contracting foci and harvested for gene expression analysis.
# When isolated PPS are plated in the cardiac cultures contracting cardiomyocytes can be detected within 3 to 5 days. To investigate whether Notch signalling is required for the development of the cardiomyocyte lineage from embryo-derived tissues, PPSs were cultured in the presence or absence of γ-secretase inhibitor and then analyzed for the development of contracting cells and for the expression of cardiac genes. […]
# [6] = tested on: Flk-1+ cells from Bry-GFP ES cells on OP9-DL1 cells; assay: Culture of Flk-1+ cells on Dll-1 expressing OP9 stromal cells; assay type: cell-based; conditions: inhibitor 5 μM; 3 days of culture
# Method: OP9-DL1 cells described by Schmitt et al. (2004) Nat. Immunol. 5:410-417 were cultured in a 24-well plate and irradiated before use. Day 3.25 EB-derived Flk-1^+ cells (3×10^4 per well) were seeded onto OP9 cells in the same medium used for the cardiac cultures. γ-Secretase inhibitor X (dissolved in DMSO) at 5 μM or a corresponding volume of DMSO was included in the cultures. Medium was changed everyday to supply fresh inhibitor. After 3 days of culture, the cells were harvested and subjected to flow oytometric analysis to determine the number of Troponin T-positive cells.
# Following 3 days of culture, areas of contracting cells were detected on the OP9 stromal cells, with approximately 24% of the cells expressing cTnT (FIG. 6A).
# [7] = inhibitor during the aggregation stage (+I/-I)
# [8] = +Dox+inhibitor/-Dox, inhibitor 5 μM during the reaggregation step
SMILES,Ainv-Notch4 ES cells expressing Notch4 (HA expression) [1],"cell population expressing cTnT ([2]; +Dox/-Dox, pooled aggregates, 2 days in cardiac cultures)","aggregates containing contracting cells ([2]; Flk-1+ cells from day 4 EBs, Dox 24 hours)","mixed colonies that generated contracting cells ([3]; Dox exposure limited to 24 hours, replated into cardiac cultures)","compact colonies that generated contracting cells ([3]; colonies formed in presence of Dox, picked at day 7, 2 to 7 days in cardiac cultures)",proportion of cTnT-expressing population compared to control ([4]; inhibitor added to the cardiac cultures (-I/+I)),"development of cTnT-positive contracting cells [4, 7]","expression levels of the cardiac genes [4, 7]","expression of cardiac genes [2, 8]","generation of contracting cells [2, 8]",PS explants that generated contracting cells [5],expression of cardiac genes in explants [5],cardiomyocyte development (cTnT+ cells) [6],"colony type (blast vs compact colonies) ([3]; inhibitor 5 μM together with Dox 0.5 μg/ml, 4 days)"
"C[C@H]1c2cccc(O)c2C(=O)C2=C(O)[C@]3(O)C(=O)C(C(N)=O)=C(O)[C@@H](N(C)C)[C@@H]3[C@@H](O)[C@@H]21 [Dox, doxycycline]",90%,greater than 60%,25%,45%,Approximately 70%,–,–,–,–,–,–,–,–,–
CC(C)C[C@H](NC(=O)[C@H](Cc1ccccc1)C[C@@H](O)[C@H](Cc1ccccc1)NC(=O)OC(C)(C)C)C(=O)N[C@@H](Cc1ccccc1)C(N)=O [γ-secretase inhibitor],–,–,–,–,–,modestly increased,suppressed,reduced,inhibited,inhibited,Less than 10%,inhibited in some but not all of the explants,inhibited,reversal back to blast colonies
